The assay has as its target T1, TNF-α (Homo sapiens, UniProt P01375).
T1 construct: purchased R&D 210-TA-020/CF
In words: TNF-α Induced HEK Blue Cellular Assay (secreted alkaline phosphatase expression, QUANTI-Blue). It is filed as cell-based. Conditions: HEK Blue TNFα reporter cells; TNF-α 100 μg/ml; 24 hrs at 37° C.; inhibition of secreted alkaline phosphatase; read-out: IC50 value. The essentials:
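Compound was serially diluted from […] to 0.5 nM final, then incubated with 10,000 HEK Blue TNFα reporter cells per well and […] TNF-α for 24 h at 37° C. SEAP output was read by QUANTI-Blue absorbance at 620 nm. Inhibition was background-corrected against DMSO controls with and without stimulation, and IC50 was fitted with a 4-parameter logistic equation.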

pIC50: −log10 of the molar value. Where only a bound is given, the exact number is not on record here.

T1 sequence (P01375 77-233 limits assumed): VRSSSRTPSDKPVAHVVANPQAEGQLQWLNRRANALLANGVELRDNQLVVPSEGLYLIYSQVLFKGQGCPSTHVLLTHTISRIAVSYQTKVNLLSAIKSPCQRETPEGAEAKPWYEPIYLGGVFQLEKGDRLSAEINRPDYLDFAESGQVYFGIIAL

By pIC50 is commonly meant the IC50 on a negative log10 scale, so that one unit is a factor of ten. Turning to `[2H]C([2H])([2H])N1C(=O)c2cccc(OC(F)F)c2[C@H]2C[C@@H]1c1nc3ccc(C#CC4CCN(C(=O)C(C)(C)C)C4)cc3n12` (stereo partly drawn) [Example 204, (7R,14R)-1-(difluoromethoxy)-6-(methyl-d3)-11-((1-pivaloylpyrrolidin-3-yl)ethynyl)-6,7-dihydro-7,14-methanobenzo[f]benzo[4,5]imidazo[1,2-a][1,4]diazocin-5(14H)-one], the pIC50 is above 7.00.

Take `[2H]C([2H])([2H])N1C(=O)c2cccc(OC(F)F)c2[C@H]2C[C@@H]1c1nc3ccc(C#CC4(C)CN(C(=O)C5(O)CC5)C4)cc3n12` [Example 205, (7R,14R)-1-(difluoromethoxy)-11-((1-(1-hydroxycyclopropane-1-carbonyl)-3-methylazetidin-3-yl)ethynyl)-6-(methyl-d3)-6,7-dihydro-7,14-methanobenzo[f]benzo[4,5]imidazo[1,2-a][1,4]diazocin-5(14H)-one]: the pIC50 was above 7.00.

For the compound `[2H]C([2H])([2H])N1C(=O)c2cccc(OC(F)F)c2[C@H]2C[C@@H]1c1nc3ccc(C#CC4(C)CN(CC)C4)cc3n12` [Example 206, (7R,14R)-1-(difluoromethoxy)-11-((1-ethyl-3-methylazetidin-3-yl)ethynyl)-6-(methyl-d3)-6,7-dihydro-7,14-methanobenzo[f]benzo[4,5]imidazo[1,2-a][1,4]diazocin-5(14H)-one], the pIC50 is above 7.00.

Take `[2H]C([2H])([2H])N1C(=O)c2cccc(OC(F)F)c2[C@H]2C[C@@H]1c1nc3ccc(C#CCCC(C)O)cc3n12` (stereo partly drawn) [Example 207, (7R,14R)-1-(difluoromethoxy)-11-(5-hydroxyhex-1-yn-1-yl)-6-(methyl-d3)-6,7-dihydro-7,14-methanobenzo[f]benzo[4,5]imidazo[1,2-a][1,4]diazocin-5(14H)-one]: the pIC50 was above 7.00.

On to `[2H]C([2H])([2H])N1C(=O)c2cccc(OC(F)F)c2[C@H]2C[C@@H]1c1nc3ccc(C#CC4(C)CN(C(=O)C5CC5(F)F)C4)cc3n12` (stereo partly drawn) [Example 210, (7R,14R)-11-((1-(2,2-difluorocyclopropane-1-carbonyl)-3-methylazetidin-3-yl)ethynyl)-1-(difluoromethoxy)-6-(methyl-d3)-6,7-dihydro-7,14-methanobenzo[f]benzo[4,5]imidazo[1,2-a][1,4]diazocin-5(14H)-one], for which the pIC50 was 6.00 to 7.00.

For `[2H]C([2H])([2H])N1C(=O)c2cccc(OC(F)F)c2[C@H]2C[C@@H]1c1nc3ccc(C#CC4(C)CN(C5CC5)C4)cc3n12` [Example 211, (7R,14R)-11-((1-cyclopropyl-3-methylazetidin-3-yl)ethynyl)-1-(difluoromethoxy)-6-(methyl-d3)-6,7-dihydro-7,14-methanobenzo[f]benzo[4,5]imidazo[1,2-a][1,4]diazocin-5(14H)-one], the pIC50 is above 7.00.

Regarding `[2H]C([2H])([2H])N1C(=O)c2cccc(OC(F)F)c2[C@H]2C[C@@H]1c1nc3ccc(C#CC4(C)CCOC4)cc3n12` (stereo partly drawn) [Example 212, (7R,14R)-1-(difluoromethoxy)-6-(methyl-d3)-11-((3-methyltetrahydrofuran-3-yl)ethynyl)-6,7-dihydro-7,14-methanobenzo[f]benzo[4,5]imidazo[1,2-a][1,4]diazocin-5(14H)-one], the pIC50 is 6.00 to 7.00.

For `[2H]C([2H])([2H])N1C(=O)c2cccc(OC(F)F)c2[C@H]2C[C@@H]1c1nc3ccc(C#CCCNC(=O)C(C)(C)O)cc3n12` [Example 213, N-(4-((7R,14R)-1-(difluoromethoxy)-6-(methyl-d3)-5-oxo-5,6,7,14-tetrahydro-7,14-methanobenzo[f]benzo[4,5]imidazo[1,2-a][1,4]diazocin-11-yl)but-3-yn-1-yl)-2-hydroxy-2-methylpropanamide], the pIC50 was 4.52 to 5.00.

Consider `[2H]C([2H])([2H])N1C(=O)c2cccc(OC(F)F)c2[C@H]2C[C@@H]1c1nc3ccc(C#CCCNC(=O)C4CC4)cc3n12` [Example 214, N-(4-((7R,14R)-1-(difluoromethoxy)-6-(methyl-d3)-5-oxo-5,6,7,14-tetrahydro-7,14-methanobenzo[f]benzo[4,5]imidazo[1,2-a][1,4]diazocin-11-yl)but-3-yn-1-yl)cyclopropanecarboxamide], for which the pIC50 was 6.00 to 7.00.

Regarding `[2H]C([2H])([2H])N1C(=O)c2cccc(OC(F)F)c2[C@H]2C[C@@H]1c1nc3ccc(C#CCCNC(=O)C(C)(C)C)cc3n12` [Example 215, N-(4-((7R,14R)-1-(difluoromethoxy)-6-(methyl-d3)-5-oxo-5,6,7,14-tetrahydro-7,14-methanobenzo[f]benzo[4,5]imidazo[1,2-a][1,4]diazocin-11-yl)but-3-yn-1-yl)pivalamide], the pIC50 is 4.52 to 5.00.

On to `[2H]C([2H])([2H])N1C(=O)c2cccc(OC(F)F)c2[C@H]2C[C@@H]1c1nc3ccc(C#CC4CCCN(C5CC5)C4)cc3n12` (stereo partly drawn) [Example 218, (7R,14R)-11-((1-cyclopropylpiperidin-3-yl)ethynyl)-1-(difluoromethoxy)-6-(methyl-d3)-6,7-dihydro-7,14-methanobenzo[f]benzo[4,5]imidazo[1,2-a][1,4]diazocin-5(14H)-one], for which the pIC50 is 4.52 to 5.00.

On to `[2H]C([2H])([2H])N1C(=O)c2cccc(OC(F)F)c2[C@H]2C[C@@H]1c1nc3ccc(C#CC(O)CC(F)(F)F)cc3n12` (stereo partly drawn) [Example 219, (7R,14R)-1-(difluoromethoxy)-6-(methyl-d3)-11-(5,5,5-trifluoro-3-hydroxypent-1-yn-1-yl)-6,7-dihydro-7,14-methanobenzo[f]benzo[4,5]imidazo[1,2-a][1,4]diazocin-5(14H)-one], for which the pIC50 was above 7.00.

`[2H]C([2H])([2H])N1C(=O)c2cccc(OC(F)F)c2[C@H]2C[C@@H]1c1nc3ccc(C#CCCN4CC[C@H](F)C4)cc3n12` [Example 220, (7R,14R)-1-(difluoromethoxy)-11-(4-((S)-3-fluoropyrrolidin-1-yl)but-1-yn-1-yl)-6-(methyl-d3)-6,7-dihydro-7,14-methanobenzo[f]benzo[4,5]imidazo[1,2-a][1,4]diazocin-5(14H)-one]: the pIC50 is above 7.00.

For the compound `[2H]C([2H])([2H])N1C(=O)c2cccc(OC(F)F)c2[C@H]2C[C@@H]1c1nc3ccc(C#CC4CN(C5CC5)C4)cc3n12` [Example 223, (7R,14R)-11-((1-cyclopropylazetidin-3-yl)ethynyl)-1-(difluoromethoxy)-6-(methyl-d3)-6,7-dihydro-7,14-methanobenzo[f]benzo[4,5]imidazo[1,2-a][1,4]diazocin-5(14H)-one], the pIC50 is 6.00 to 7.00.

For the compound `[2H]C([2H])([2H])N1C(=O)c2cccc(OC(F)F)c2[C@H]2C[C@@H]1c1nc3ccc(C#CC4CN(C5COC5)C4)cc3n12` [Example 224, (7R,14R)-1-(difluoromethoxy)-6-(methyl-d3)-11-((1-(oxetan-3-yl)azetidin-3-yl)ethynyl)-6,7-dihydro-7,14-methanobenzo[f]benzo[4,5]imidazo[1,2-a][1,4]diazocin-5(14H)-one], the pIC50 is above 7.00.

Take `[2H]C([2H])([2H])N1C(=O)c2cccc(OC(F)F)c2[C@H]2C[C@@H]1c1nc3ccc(C#CC4(C)CCCN(C(C)=O)C4)cc3n12` (stereo partly drawn) [Example 225, (7R,14R)-11-((1-acetyl-3-methylpiperidin-3-yl)ethynyl)-1-(difluoromethoxy)-6-(methyl-d3)-6,7-dihydro-7,14-methanobenzo[f]benzo[4,5]imidazo[1,2-a][1,4]diazocin-5(14H)-one]: the pIC50 was above 7.00.

`[2H]C([2H])([2H])N1C(=O)c2cccc(OC(F)F)c2[C@H]2C[C@@H]1c1nc3ccc(C#CCCN4CCC(F)(F)C4)cc3n12` [Example 226, (7R,14R)-1-(difluoromethoxy)-11-(4-(3,3-difluoropyrrolidin-1-yl)but-1-yn-1-yl)-6-(methyl-d3)-6,7-dihydro-7,14-methanobenzo[f]benzo[4,5]imidazo[1,2-a][1,4]diazocin-5(14H)-one]: the pIC50 is above 7.00.

As to `[2H]C([2H])([2H])N1C(=O)c2cccc(OC(F)F)c2[C@H]2C[C@@H]1c1nc3ccc(C#CCCN4CC[C@@H](F)C4)cc3n12` [Example 227, (7R,14R)-1-(difluoromethoxy)-11-(4-((R)-3-fluoropyrrolidin-1-yl)but-1-yn-1-yl)-6-(methyl-d3)-6,7-dihydro-7,14-methanobenzo[f]benzo[4,5]imidazo[1,2-a][1,4]diazocin-5(14H)-one], the pIC50 is above 7.00.

As to `[2H]C([2H])([2H])N1C(=O)c2cccc(OC(F)F)c2[C@H]2C[C@@H]1c1nc3ccc(C#CCCN4CC(F)C4)cc3n12` [Example 228, (7R,14R)-1-(difluoromethoxy)-11-(4-(3-fluoroazetidin-1-yl)but-1-yn-1-yl)-6-(methyl-d3)-6,7-dihydro-7,14-methanobenzo[f]benzo[4,5]imidazo[1,2-a][1,4]diazocin-5(14H)-one], the pIC50 was above 7.00.

Consider `[2H]C([2H])([2H])N1C(=O)c2cccc(OC(F)F)c2[C@H]2C[C@@H]1c1nc3ccc(C#CCN4CCOCC4)cc3n12` [Example 229, (7R,14R)-1-(difluoromethoxy)-6-(methyl-d3)-11-(3-morpholinoprop-1-yn-1-yl)-6,7-dihydro-7,14-methanobenzo[f]benzo[4,5]imidazo[1,2-a][1,4]diazocin-5(14H)-one], for which the pIC50 was 6.00 to 7.00.

For the compound `[2H]C([2H])([2H])N1C(=O)c2cccc(OC(F)F)c2[C@H]2C[C@@H]1c1nc3ccc(C#CCN4CCC(F)(F)C4)cc3n12` [Example 230, (7R,14R)-1-(difluoromethoxy)-11-(3-(3,3-difluoropyrrolidin-1-yl)prop-1-yn-1-yl)-6-(methyl-d3)-6,7-dihydro-7,14-methanobenzo[f]benzo[4,5]imidazo[1,2-a][1,4]diazocin-5(14H)-one], the pIC50 was above 7.00.

(Values after US20260365682A1, “MODULATORS OF TNF-ALPHA ACTIVITY” (Forward Therapeutics, Inc., priority 2022, published 2026).)
